Reference: ChEMBL document CHEMBL1201862, “PubChem BioAssay data set” (2004)
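Values below derive from 48-hour exposures of cells grown in 96-well plates, with endpoints linearly interpolated between the two concentrations bracketing the appropriate inhibition level. GI50 is the concentration that inhibits growth by half.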 Activity calls are given as the source filed them. Cut-off read from the data, not from the text of the source: active = GI50 up to about 1.1 µM and inactive = higher.

Legend:
Assay in all cases: NCI-60 cell line screen, 48 h
DLD-1 = test system: DLD-1
KM-20L2 = test system: KM-20L2
RXF 631 = test system: RXF 631
DMS-273 = test system: DMS-273
XF498 = test system: XF498
SNB-78 = test system: SNB-78
HOP-18 = test system: HOP-18
M19-MEL = test system: M19-MEL

Measured: GI50

CC1CCCc2c(CC3CC(=O)NC(=O)C3)n[nH]c21 (configuration not stated)
inactive: DLD-1 > 100 µM | KM-20L2 > 100 µM | RXF 631 > 100 µM | DMS-273 > 100 µM | XF498 > 100 µM | SNB-78 > 100 µM | HOP-18 > 100 µM | M19-MEL > 100 µM

CC(C)(C)c1cc(C2c3cc4c(cc3OC(O)(CO)C2C(=O)O)OCO4)cc(C(C)(C)C)c1O.CC(C)(C)c1cc(C2c3cc4c(cc3OC3(O)COC(=O)C23)OCO4)cc(C(C)(C)C)c1O (configuration not stated)
inactive: DLD-1 11.7 µM | KM-20L2 17 µM | RXF 631 13.1 µM | DMS-273 14 µM | HOP-18 7.78 µM | M19-MEL 13.8 µM

C/C(=N\N)C(CN1CCCCC1)C(c1ccccc1)c1c(O)c2ccccc2oc1=O (configuration not stated)
inactive: DLD-1 > 100 µM | KM-20L2 > 100 µM | RXF 631 > 100 µM | DMS-273 > 100 µM | XF498 > 100 µM | SNB-78 > 100 µM | M19-MEL > 100 µM

CCCCCNC(=O)CCCCCCCCCCCNC(=O)CCCCCCCCCCN1C=CC(=CC=C2C=CC(=O)C=C2)C=C1
inactive: DLD-1 > 100 µM | KM-20L2 > 100 µM | RXF 631 > 100 µM | DMS-273 23.8 µM | XF498 10.3 µM | SNB-78 15.3 µM | M19-MEL 34.4 µM

C/C(=N\NC(N)=S)c1cc(C)c(C)cc1C
inactive: DLD-1 53.3 µM | KM-20L2 35.6 µM | RXF 631 57.7 µM | DMS-273 19.3 µM | XF498 23 µM | SNB-78 > 100 µM | HOP-18 62.8 µM | M19-MEL 25.9 µM

COc1cc(-c2ccccc2)c(OC)cc1CCl
inactive: DLD-1 > 100 µM | KM-20L2 > 100 µM | RXF 631 > 100 µM | DMS-273 > 100 µM | XF498 > 100 µM | SNB-78 > 100 µM | HOP-18 > 100 µM | M19-MEL > 100 µM

O=c1c2ccccc2c(=O)c2c1c1[nH]c3ccccc3c1c1c(=O)c3ccccc3c(=O)c21
inactive: DLD-1 > 100 µM | KM-20L2 > 100 µM | RXF 631 > 100 µM | DMS-273 > 100 µM | XF498 > 100 µM | SNB-78 > 100 µM | HOP-18 > 100 µM | M19-MEL > 100 µM

O=C(Nc1ccc([N+](=O)[O-])cc1C(=O)O)c1ccc([N+](=O)[O-])cc1
inactive: DLD-1 35.4 µM | KM-20L2 18.4 µM | RXF 631 21.1 µM | DMS-273 31.2 µM | XF498 23.3 µM | M19-MEL 61 µM

C=C1C2CC(OC(C)=O)C3(C)C(c4ccoc4)OC(=O)[C@@H](O)[C@]13OC1C[C@H](OC(C)=O)C(C)(C)[C@H](CC(=O)OC)[C@]12C (some centres not stated)
inactive: KM-20L2 > 100 µM | RXF 631 > 100 µM | DMS-273 > 100 µM | SNB-78 > 100 µM | HOP-18 > 100 µM | M19-MEL > 100 µM

COc1cc(CCc2ccc(N)cc2)cc(OC)c1OC
inactive: DLD-1 > 100 µM | KM-20L2 44.2 µM | RXF 631 > 58.1 µM | DMS-273 37.9 µM | XF498 64.6 µM | SNB-78 39.1 µM | HOP-18 > 71 µM | M19-MEL 55.8 µM
